Patent publication US20190255056A1, “A HCK INHIBITOR AND A BCL-2 INHIBITOR FOR TREATING ACUTE MYELOID LEUKEMIA” (RIKEN, priority 2016, published 2019)

What was measured:
human FLT3−ITD+AML cells = test: In vivo treatment of AML-engrafted NSG recipients (PDX model); set-up: species or system NSG mice
Procedure: NSG newborns received 1.5Gy total body irradiation followed by intravenous injection of purified human cells. Donor cells were purified according to their cell surface phenotype using monoclonal antibodies against human CD34, CD38, CD90, CD45RA, CD3, CD19 and CD33. Engraftment levels of human cells in the NSG recipients were assessed by retro-orbital phlebotomy and flow cytometry.
(§1) In vivo treatment experiments were performed with AML-engrafted NSG recipients using RK-20449 (Ref. STM 2013) and ABT-199 (Souers A J et al., Nature Medicine 2013, Pan R et al., Cancer Discovery 2014). The recipients were administered RK-20449 intraperitoneally 30 mg/kg twice a day, ABT-199 orally 70 mg/kg once a day or both RK-20449 and ABT-199 at these dosing schedules. The mice were sacrificed when they became moribund or after 4˜6 weeks of treatment, and human AML chimerisms in BM, spleen and PB were determined using flow cytometry. In secondary transplantation, each mouse received 7-AAD(-) viable human CD45+cells from 2.5% of total BM that remained in AML-engrafted recipients at the time of sacrifice, to simulate relapse occurring from residual viable AML cells.
These studies examined whether inhibition of a mutated kinase alone eliminates AML in vivo using a NSG PDX model. Patient-derived cells with a FLT3−ITD mutation engraft in vivo and initiate AML, but the individual FLT3−ITD+cells harbor multiple other mutations in various combinations. These mutations may contribute to therapy responsiveness in cooperation with FLT3−ITD, and a PDX model that reflects mutational complexity of human AML cells is necessary to examine the contribution of multiple co-existing mutations. Therefore, the frequency of AML-associated somatic mutations was evaluated in the disclosed PDX model using newborn NSG xenotransplantation, and the same sets of mutations were present in patient-derived leukemia-initiating population and engrafted AML cells in recipients (see, FIG. 4). […] The extent that targeting FLT3 pathway alone can result in reduction of human AML cells harboring multiple mutations in vivo was examined as follows. RK-20449 is a pyrrolo-pyrimidine-derivative multi-kinase inhibitor of Src family kinase HCK and FLT3 that effectively target human AML cells. Therefore, RK-20449 was administered to 58 NSG mice engrafted with AML from 19 FLT3−ITD+AML patients and the results are shown in FIG. 8.

[1] = system: residual viable human CD45+AML cells (leukemia-initiating capacity); test: Secondary (serial) transplantation of residual human AML cells after in vivo treatment; set-up: species or system NSG mice; conditions: 2.5% of residual viable human CD45+ cells transplanted per secondary recipient; single-agent groups
Procedure: as §1
Leukemia-initiating capacity remaining after treatment was compared by isolating residual viable human CD45+AML cells from each treated mouse and transplanting a pre-determined fraction into secondary NSG recipients.

SMILES	response to ABT-199 alone (human FLT3−ITD+AML cells; ABT-199 orally 70 mg/kg once a day, majority of cases)	AML initiation in secondary recipients from treated BM [1]	residual BM human CD45+chimerism (human FLT3−ITD+AML cells; RK-20449 alone 30 mg/kg i.p. twice a day, five patients with complete responses, every recipient treated) [%]	response in the spleen (human FLT3−ITD+AML cells; RK-20449 alone, 11 additional cases)	response of FLT3−ITD+human AML cells to single agent in vivo (human FLT3−ITD+AML cells; all 19 cases tested)	remaining AML cells in BM, spleen and PB (human FLT3−ITD+AML cells; flow cytometry and immunohistochemistry, complete-responder patients, all recipients treated)	BCL-2 dependence for leukemia cell survival (human FLT3−ITD+AML cells; in vivo kinase inhibition)	cases with residual AML cells in the BM of at least one treated mouse (human FLT3−ITD+AML cells; single agent RK-20449)
CC1(C)CCC(CN2CCN(c3ccc(C(=O)NS(=O)(=O)c4ccc(NCC5CCOCC5)c([N+](=O)[O-])c4)c(Oc4cnc5[nH]ccc5c4)c3)CC2)=C(c2ccc(Cl)cc2)C1 [ABT-199, reference compound]	limited responses	every secondary recipient	–	–	–	–	–	–
CN1CCN([C@H]2CC[C@H](n3cc(-c4ccc(Oc5ccccc5)cc4)c4c(N)ncnc43)CC2)CC1 [RK-20449, 7-((1R,4R)-4-(4-methylpiperazin-l-yl)cyclohexyl)-5-(4-phenoxyphenyl)-7H-pyrrolo[2,3-d]pyrimidin-4-amine]	–	every secondary recipient	< 5	complete responses in the spleen in a majority of recipients tested	significant responses	less than 0.01%	enhanced	14 of 19
